Experimental findings from ChEMBL document CHEMBL4765451, “The one-pot synthesis of butyl-1H-indol-3-alkylcarboxylic acid derivatives in ionic liquid as potent dual-acting agent for management of BPH” (Eur J Med Chem, 2020) are described below.

Series [1] has as its target T1, Alpha-1D adrenergic receptor (Homo sapiens, UniProt P25100).
T1 sequence (P25100 whole entry): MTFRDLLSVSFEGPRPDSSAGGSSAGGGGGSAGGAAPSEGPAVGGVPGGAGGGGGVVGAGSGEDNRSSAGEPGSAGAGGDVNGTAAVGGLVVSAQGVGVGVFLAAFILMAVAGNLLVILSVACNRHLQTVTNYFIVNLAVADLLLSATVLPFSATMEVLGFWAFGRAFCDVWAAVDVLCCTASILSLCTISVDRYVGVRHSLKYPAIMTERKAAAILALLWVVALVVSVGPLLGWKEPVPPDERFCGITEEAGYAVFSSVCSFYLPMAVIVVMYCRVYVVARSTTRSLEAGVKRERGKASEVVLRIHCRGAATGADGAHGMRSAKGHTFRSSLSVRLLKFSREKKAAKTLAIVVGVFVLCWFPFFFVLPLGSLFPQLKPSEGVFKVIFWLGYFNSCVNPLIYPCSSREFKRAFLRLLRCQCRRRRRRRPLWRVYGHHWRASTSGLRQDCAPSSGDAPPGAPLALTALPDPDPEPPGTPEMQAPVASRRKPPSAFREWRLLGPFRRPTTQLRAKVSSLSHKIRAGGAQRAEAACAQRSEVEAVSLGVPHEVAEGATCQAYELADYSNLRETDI
Nature of the series: Antagonist activity at human alpha1D receptor transfected in HEK293 cells co-transfected with Galpha16 assessed as reduction in intracellular calcium release incubated for 40 mins by Fluo-4AM dye based fluorescence assay. Type of series: functional, cell-based.

The nature of series [2]: Inhibition of 5-alpha reductase in rat liver microsomes assessed as inhibition of DHT formation using testosterone as substrate incubated for 10 mins by NADPH assay. Background: Liver microsomes are a subcellular fraction often used to study metabolism.
The target of series [3] is T2, Alpha-1B adrenergic receptor (Homo sapiens, UniProt P35368).
T2 sequence (P35368 whole entry): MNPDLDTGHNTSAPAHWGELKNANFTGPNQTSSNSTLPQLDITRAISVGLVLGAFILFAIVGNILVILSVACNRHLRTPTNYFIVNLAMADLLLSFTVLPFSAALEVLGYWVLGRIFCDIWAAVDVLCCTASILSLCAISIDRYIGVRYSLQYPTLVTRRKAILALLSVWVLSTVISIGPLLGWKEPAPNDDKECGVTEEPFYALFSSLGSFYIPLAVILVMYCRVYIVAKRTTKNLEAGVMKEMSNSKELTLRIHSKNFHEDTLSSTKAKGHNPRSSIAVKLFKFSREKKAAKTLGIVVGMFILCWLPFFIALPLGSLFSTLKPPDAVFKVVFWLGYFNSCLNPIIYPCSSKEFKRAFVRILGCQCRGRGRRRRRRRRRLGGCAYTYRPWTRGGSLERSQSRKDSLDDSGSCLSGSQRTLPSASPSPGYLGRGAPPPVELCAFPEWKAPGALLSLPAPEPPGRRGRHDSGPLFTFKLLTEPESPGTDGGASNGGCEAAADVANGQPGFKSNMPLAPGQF
Nature of the series: Antagonist activity at human alpha1B receptor transfected in HEK293 cells co-transfected with Galpha16 assessed as reduction in intracellular calcium release incubated for 40 mins by Fluo-4AM dye based fluorescence assay. The format is functional, cell-based.

In series [4] the target is T3, Alpha-1A adrenergic receptor (Homo sapiens, UniProt P35348).
T3 sequence (P35348 whole entry): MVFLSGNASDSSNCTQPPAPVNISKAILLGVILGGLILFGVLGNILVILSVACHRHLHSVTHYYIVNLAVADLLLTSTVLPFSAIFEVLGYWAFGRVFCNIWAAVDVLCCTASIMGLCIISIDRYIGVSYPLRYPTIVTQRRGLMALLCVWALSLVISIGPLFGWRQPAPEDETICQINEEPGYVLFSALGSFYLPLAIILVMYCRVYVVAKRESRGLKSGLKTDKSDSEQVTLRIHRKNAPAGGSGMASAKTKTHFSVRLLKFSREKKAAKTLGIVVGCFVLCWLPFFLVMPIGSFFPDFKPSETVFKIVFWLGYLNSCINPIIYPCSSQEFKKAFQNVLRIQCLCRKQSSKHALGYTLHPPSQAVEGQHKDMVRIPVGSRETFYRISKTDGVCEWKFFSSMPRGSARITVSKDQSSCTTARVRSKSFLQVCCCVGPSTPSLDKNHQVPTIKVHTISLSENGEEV
Nature of the series: Antagonist activity at human alpha1A receptor transfected in HEK293 cells co-transfected with Galpha16 assessed as reduction in intracellular calcium release incubated for 40 mins by Fluo-4AM dye based fluorescence assay. The format is functional, cell-based. A general note: A change in cytosolic calcium serves as a functional read-out for many receptors and channels.

Series [5] in a line: Cmax in Sprague-Dawley rat at 20 mg/kg, ip. As to conditions: in vivo. The format is ADME, organism-based. Also on record: route intraperitoneal, dose 20 mg/kg.
The nature of series [6]: Tmax in Sprague-Dawley rat at 2 mg/kg, iv. The format is ADME, organism-based. As to conditions: in vivo.
Series [7] in a line: AUC (0 to infinity) in Sprague-Dawley rat at 20 mg/kg, ip. Also on record: time infinity, route intraperitoneal, dose 20 mg/kg. As to conditions: in vivo. The format is ADME, organism-based.
Series [8] relates to Huh-7. Nature of the series: Cytotoxicity against human Huh-7 cells assessed as reduction in cell viability at 0.390625 to 100 uM incubated for 72 hrs by MTT assay. The format is cell-based. To be noted: huh-7, 72 h, dose 0.390625-100 µM. On the technique in general: Tetrazolium assays rely on reduction of a dye to a coloured formazan, in cell work by metabolically active cells.

Series [9] in a line: Half life in Sprague-Dawley rat at 2 mg/kg, iv. To be noted: in vivo. The format is ADME, organism-based.
Series [10] in a line: MRT in Sprague-Dawley rat at 2 mg/kg, iv. Type of series: ADME, organism-based. To be noted: in vivo.
Series [11] in a line: AUC (0 to infinity) in Sprague-Dawley rat at 2 mg/kg, iv. Type of series: ADME, organism-based. Also on record: time infinity, route intravenous, dose 2 mg/kg. To be noted: in vivo.
A short description of series [12]: Half life in Sprague-Dawley rat at 20 mg/kg, ip. Type of series: ADME, organism-based. To be noted: in vivo.
Series [13] concerns Caco-2. Nature of the series: Cytotoxicity against human Caco-2 cells assessed as reduction in cell viability at 0.390625 to 100 uM incubated for 72 hrs by MTT assay. The format is cell-based. To be noted: caco-2, 72 h, dose 0.390625-100 µM.
The nature of series [14]: Cmax in Sprague-Dawley rat at 2 mg/kg, iv. The format is ADME, organism-based. Also noted: route intravenous, dose 2 mg/kg. To be noted: in vivo.
A short description of series [15]: AUC (0 to t) in Sprague-Dawley rat at 2 mg/kg, iv. Type of series: ADME, organism-based. As to conditions: in vivo. Also noted: dose 2 mg/kg.
Series [16] in a line: MRT in Sprague-Dawley rat at 20 mg/kg, ip. Type of series: ADME, organism-based. To be noted: in vivo.
The nature of series [17]: Tmax in Sprague-Dawley rat at 20 mg/kg, ip. The format is ADME, organism-based. To be noted: in vivo.
Series [18] is described as follows: Bioavailability in Sprague-Dawley rat at 20 mg/kg, ip. As to conditions: in vivo. The format is ADME, organism-based.
Series [19] in a line: AUC (0 to t) in Sprague-Dawley rat at 20 mg/kg, ip. The format is ADME, organism-based. Also noted: dose 20 mg/kg. To be noted: in vivo.

Molecules are shown by their SMILES.

As a reminder, the IC50 is the concentration needed to halve the response being measured. Turning to `COc1ccccc1N1CCN(CCCCCn2cc(CCCC(=O)O)c3ccccc32)CC1`, the IC50 is 0.378 µM in series [1], above 5 µM in series [2], 0.0098 µM in series [3] and above 1 µM in series [4].

With `O=C(O)CCCc1cn(CCCCCN2CCN(c3ccccc3Cl)CC2)c2ccccc12`, the half-inhibitory concentration (IC50) in [1] is 0.329 µM; in [2], 0.612 µM; in [3], above 1 µM; in series [4], 0.0329 µM.

What is called Cmax is the maximum level reached in the sampled fluid or tissue. What is called Tmax is the time from dosing to the highest level. What is called AUC(0-inf) is the area under the concentration-time curve extrapolated to infinity. A low value points to low exposure. As usually defined, the half-life is how long it takes for the measured level to halve. A low value points to rapid decline. For orientation: MRT means the average time that molecules of a dose stay in the body. As usually defined, the AUC(0-t) is exposure summed from dosing to a finite time, without extrapolation to infinity. What is called bioavailability is the share of a dose that reaches the circulation, judged against a reference dose that is usually intravenous. High values mean much systemic uptake, low ones little systemic uptake. Take `COc1ccccc1N1CCN(CCCCn2cc(CCCC(=O)O)c3ccccc32)CC1`: the Cmax in series [5] was 89.6 ng/mL; in series [14], 37.9 ng/mL. In addition, the IC50 in series [1] is 0.189 µM; in series [2] it was 0.568 µM; in [3] it was above 1 µM; in series [4], 0.0208 µM. In addition, the Tmax in series [6] and in [17] was 3 min in each case. The figures for the AUC(0-inf) in series [7] and in series [11] were 26.9 ng·h/mL and 30.5 ng·h/mL, respectively. Also, the Activity entry in [8] and in series [13] was “Non-Toxic” throughout. Further, the results for the half-life in series [9] and in series [12] were 11 h and 5.75 h, respectively. Moreover, the MRT in series [10] is 1.94 h; in series [16] it was 1.49 h. In addition, the AUC(0-t) in series [15] was 12.3 ng·h/mL; in series [19], 17.5 ng·h/mL. The same molecule displayed a bioavailability in [18] of 8.83%.

For `O=C(O)CCCc1cn(CCCCN2CCN(c3ccccc3Cl)CC2)c2ccccc12`, the IC50 in series [1] is 0.189 µM; in series [2], above 5 µM; in series [3] it was above 1 µM; in series [4] it was above 1 µM.

`COc1ccccc1N1CCN(CCCn2cc(CCCC(=O)O)c3ccccc32)CC1`: the IC50 in series [1] was 0.164 µM; in series [2] it was above 5 µM; in series [3], above 1 µM; in series [4], above 1 µM.

For `CC(C)(C)NC(=O)[C@H]1CC[C@H]2[C@@H]3CC[C@H]4NC(=O)C=C[C@]4(C)[C@H]3CC[C@]12C` [FINASTERIDE], the IC50 in series [2] stood at 0.59 µM.

For `CCOc1ccccc1OCCN[C@H](C)Cc1ccc(OC)c(S(N)(=O)=O)c1` [TAMSULOSIN], the values for the IC50 in series [1] and in series [3] were 0.00015 µM and 0.0042 µM, respectively.
